Measurements from patent US20110151474A1, “METHOD OF ESTIMATING THE RISK OF EXPRESSION OF ADVERSE DRUG REACTION CAUSED BY THE ADMINISTRATION OF A COMPOUND, WHICH IS EITHER METABOLIZED PER SE BY UGT1A1 ENZYME OR WHOSE METABOLIC INTERMEDIATE IS METABOLIZED BY THE ENZYME” (DAIICHI PURE CHEMICALS CO ., LTD, priority 2000, published 2011).

Assays:
[1] = out of 1245 patients during period of clinical trials; cited from earlier work
[2] = Retrospective review of adverse drug reaction (leukopenia, diarrhea, severe toxicity) in patients given irinotecan chemotherapy, correlated with UGT1A1 genotype; format: in vivo, Japanese patients; conditions: for odds ratio of severe toxicity: logistic regression
From the text: The subjects were Japanese patients who had received irinotecan administration in their chemotherapies from July 1994 to June 1999. For confirming the security of the patients, each patient was primarily ensured to have an adequate bone marrow function before the use of irinotecan: a leukocyte count of 3×10^9/liter or more, and a platelet count of 100×10^9/Iiter or more. In addition, the patients who had evidence of watery diarrhea, paralytic ileus, pulmonary interstitial pneumonia or fibrosis, massive ascites or pleural effusion, apparent jaundice, or anamnesis of hypersensitivity to irinotecan were excluded from the irinotecan use. As a result, 118 patients were used as a subject of this Example.
For confirming the adaptability to irinotecan, the complete blood count, platelet count and serum chemistry were assessed at least once a week. And bilirubin levels were always measured.
We retrospectively reviewed the clinical records including patients' characteristics (e.g. age, gender and the like), the dosage and schedule of irinotecan administration, the record of use of other drugs or radiotherapy, and observed adverse drug reaction caused by irinotecan (infusion). We counted the number of days when the patients received granulocyte colony stimulating factors (G-CSFs) or loperamide hydrochloride, the latter of which is commonly prescribed for irinotecan-induced diarrhea in Japan. Prophylactic administration of G-CSF prevented the apparent onset of neutropenia. Since the dose limiting toxicity of irinotecan is known to result in leukopenia and diarrhea, we defined as “severe toxicity” as leukopenia of grade 4 (0.9×10^9/liter) and the diarrhea of grade 3 or worse (grade 3 is for the watery diarrhea for 5 days or more; grade 4, the diarrhea with hemorrhagic or dehydration as classified in accordance with the Japan Society for Cancer Therapy criteria). No other adverse drug reactions were included in this example because they would be influenced by miscellaneous patients' backgrounds. The Serum total bilirubin levels were recorded with the scores just prior to irinotecan administration along with the highest of those after initiation of the therapy.
Blood was sampled from each patient (118 samples) and their genotypes were analyzed after irinotecan administration in each patient. […]
We analyzed the following variant sequences for each genomic DNA (see Fig. I): a two-extra-nucleotide (TA) insertion within the TATA box resulting in the sequence (TA)7TAA at positions −39 to −53, whose type is referred to as UGT1A1 *28; (Monaghan, G., Ryan, M., Seddon, R., Hume, R., and Burchell, B., Lancet, 347: 578-581, 1996, Bosma, P. J. et al., N. Engi. J. Med., 333: 1171-1175, 1995); a transition at codon 71 in exon I (from (G) to (A) at +211 locating in the downstream region from the initial site of the transcription) that changes glycine to arginine (represented by G71 R, whose type is referred to as UGT1A1*6); a transversion at codon 229 in exon I that alters proline to glutamine (represented by P229Q, whose type is referred to as UGT1A1*27); a trarisversion at codon 367 from (C) to (G) at position +1099 in exon 4 that converts arginine to glycine (represented by R367G, whose type is referred to as UGT1A1*29); and a transversion (+1456, T to G) at codon 486 in exon 5 that transforms tyrosine (Y) into aspartic acid (D) (represented by Y486D, whose type is referred to as UGTIA1*7). […]

CCc1c2c(nc3ccc(OC(=O)N4CCC(N5CCCCC5)CC4)cc13)-c1cc3c(c(=O)n1C2)COC(=O)[C@]3(O)CC [irinotecan]
deaths attributed to adverse drug reactions [1]: 55 patients
odds ratio of severe toxicity ([2]; UGT1A1*6, 95% CI 0.15-1.61, P>0.2): 0.55
patients who experienced severe toxicity ([2]; all patients heterozygous for UGT1A1*27): 3 patients
odds ratio of severe toxicity ([2]; genotype heterozygous or homozygous for UGT1A1*28, 95% CI 1.98-13.96, P<0.001): 5.21
patients who experienced severe toxicity (leukopenia grade 4 and/or diarrhea grade 3 or worse) ([2]; of 118 patients given irinotecan, 92 did not): 26 patients
increase of severe toxicity of irinotecan ([2]; possession of UGT1A1*28, multiple logistic regression with gender and chemotherapy regimen (FIG. 5)): 7 fold
